In a melting point compilation (Tetko et al.; mined from patent text by program, amines drawn as free bases though some values may be those of a salt) one finds melting point data, which are given here for 62 molecules.

Each structure is given as a SMILES string.

In the case of `Cc1ccc(CCNC(=O)c2ccc3n2Cc2ccccc2N(C(=O)c2ccc(-c4ccccc4C)c(C)c2)C3)cc1`, the melting point is 161 to 163 °C.

Take `Cc1ccc(S(=O)(=O)N2CCC(c3ccc(CCCCC(=O)O)cc3)CC2)cc1`: the melting point was 164 to 170 °C.

Molecule `CNc1cc(Oc2ccc(NC(=O)Nc3ccc(-c4cccnc4)c(C(F)(F)F)c3)cc2)ncn1` showed a melting point of 118 to 123 °C.

`CC(C)(C)c1ccc(COCCCCCCNC(=O)c2cc(-c3cccc(C(F)(F)F)c3)c(OCC(=O)O)c(-c3cccc(C(F)(F)F)c3)c2)cc1` came in with a melting point of 156 to 158 °C.

Consider `CC(C)(C)c1cc(O)cc(C(C)(C)C)c1Sc1nnc(-c2ccccn2)o1`, for which the melting point lay in the range of 128 to 129 °C.

With `CC(C)(C)OC(=O)NCC(=O)N1CCC[C@H]1C(=O)OC[C@H](Cc1ccccc1)Nc1ccc(O)c2c1C(=O)c1c(O)cccc1C2=O`, the melting point was determined as 100 °C.

`O=c1[nH]c2cscc2c(=O)n1CCN1CCN(c2ccccc2)CC1` gave a melting point of over 250 °C.

Molecule `Cc1nc2cc(C(F)(F)F)ccc2n1NC(=O)c1ccc(Cl)c(S(N)(=O)=O)c1` gave a melting point of 193 to 195 °C.

The molecule `CN1CC(C(O)C(O)C(O)CO)OC1=C(C#N)C=C1Nc2ccccc2C1=O` (configuration not stated) gave a melting point of 237 °C.

`O=C(CNc1ccccc1)OC1CCCCC1` gave a melting point of 50 °C.

`O=C(CC[C@H](NC(=O)OCc1ccccc1)C(=O)OCc1ccccc1)ON1C(=O)CCC1=O` returned a melting point of 104 to 106 °C.

`CCCC1=C(C(=O)OCC)C(c2ccccc2C)c2c[nH]nc2N1` (configuration not stated) returned a melting point of 178 °C.

`Cc1nc2sc3c(c2c2[nH][nH]c(=O)c12)CCN(C(=O)OC(C)(C)C)C3`: the melting point was over 300 °C.

The molecule `COc1ccc(N2CCN(c3ccccn3)CC2)cc1` had a melting point of 126 °C.

The molecule `COc1ccc(CC(SC)C(=O)O)cc1C(=O)NCc1ccc(C(F)(F)F)cc1` (configuration not stated) registered a melting point of 170 to 171 °C.

Molecule `Cc1cc(C)c(C2C(=O)N(C)C3(CCN(N(C)C)CC3)C2=O)c(C)c1` (configuration not stated) had a melting point of over 195 °C.

For the molecule `Nc1ncc(CN2CCN(c3ccccc3)CC2)c2nc(-c3ccco3)nn12`, the melting point lay within 185 to 187 °C.

Molecule `COc1ccc(C(C#Cc2ccccc2)CC(=O)Nc2nccs2)cc1OC1CCCC1` (racemic) showed a melting point of 142 to 144 °C.

In turn, `Cc1ccc(-c2ccc(-c3ccc(C)cc3)n2-c2ccc(O)cc2)cc1` registered a melting point of 221 to 222 °C.

Regarding `Cc1c2c(c(-c3ccc4c(c3)OCO4)c3c4c(ccc13)OCO4)C(=O)NC2=O`, the melting point is 310 to 313 °C.

As to `CCCCCCCCCCCCSc1cc2nc(C(CC)CCCC)oc2cc1[N+](=O)[O-]` (configuration not stated), the melting point fell in the range of 108 to 110 °C.

In turn, `OC1CCc2c1cccc2-n1cccc1` (configuration not stated) returned a melting point of 80 to 81 °C.

Molecule `CO[C@]1(c2cnc(S)s2)CCO[C@@H]1C` (racemic) registered a melting point of 126 to 127 °C.

`CCc1noc(C(=NOC)c2ccccc2COc2cc(C)ccc2C)n1` showed a melting point of 112 °C.

The molecule `NC(=O)c1cnc2ccc(Cl)cc2c1Cl` registered a melting point of 209 °C.

Regarding `O=c1ccn(-c2cccc(C(F)(F)F)c2)nc1-c1nnnn1-c1ccccc1`, the melting point is 172 to 173 °C.

As to `CCCCOC(=O)c1ccc(Nc2nc(Nc3ccc(C(=O)OCCCC)cc3)nc(-c3cccn3Cc3ccccc3)n2)cc1`, the melting point lay within 173 to 174 °C.

Regarding `CC1SC(=O)NN=C1c1ccc2c(c1)C(=Cc1ccccc1[N+](=O)[O-])C(=O)N2` (configuration not stated), the melting point worked out at 258 °C.

`CCn1ccc2c(C)nc3c(Br)cnn3c21` returned a melting point of 113 to 114 °C.

Consider `CC(=O)C(C)N1C(=O)N(c2ccc(N3CCN(c4ccc(O)cc4)CC3)cc2)C(=O)C1(C)C` (configuration not stated), for which the melting point was 226 °C.

Turning to `O=S1(=O)c2cccc3cccc(c23)N1CCN1CCC(=Cc2cc3cc(F)ccc3[nH]2)CC1`, the melting point was 160 °C.

The molecule `CCCCn1nc(-c2ccc(F)cc2)c(-c2ccc(S(C)(=O)=O)cc2)cc1=O` showed a melting point of 111 to 113 °C.

Take `CCCCCCCCCCCCCCCCCCOc1cc(NC(=O)OC(C)(C)C)cc([N+](=O)[O-])c1`: the melting point was 70 to 72 °C.

Molecule `COc1cc2ncc(C#N)c(Nc3ccc(F)c(Cl)c3)c2cc1NC(=O)C=CCN1C(C)CCCC1C` (configuration not stated) had a melting point of 120 to 122 °C.

For `OCCOC(c1ccccc1)(c1ccccc1)c1ccccc1`, the melting point was in the range of 103 to 106 °C.

As to `CCOC(=O)c1cc(=O)c2ccccc2n1C`, the melting point lay within 114 to 115 °C.

In turn, `O=C(O)c1ccc(=O)n(Cc2ccc(-c3ccccc3)cc2)c1` came in with a melting point of 245 to 250 °C.

Molecule `Cc1nn2c(CCCOc3ccc(NCCC(=O)O)cc3)n[nH]c2c1Cl` yielded a melting point of 151 to 153 °C.

`O=C1CNc2cc([N+](=O)[O-])c(F)cc2O1` gave a melting point of 196 to 202 °C.

In the case of `CC1=Nc2c(C)nn(C)c2C2=NC(C)C(C)N12` (configuration not stated), the melting point was found to be 280 °C.

Molecule `CN1CCSC1=NC(=Nc1ccccc1)N1CCCC1` displayed a melting point of 160 to 162 °C.

Regarding `C[C@@H](NC(=O)c1ccc(-c2cc(C(F)(F)F)nn2C)s1)[C@](O)(Cn1cncn1)c1ccc(F)cc1F`, the melting point lay in the range of 106 to 110 °C.

On to `CC(C)(C)N(NC(=O)c1ccccn1)C(=O)c1ccccc1Br`, for which the melting point fell in the range of 179 to 180 °C.

As to `CC(C)Oc1cc(-n2c(=O)cc(C(F)(F)F)n(C)c2=O)c(F)cc1Br`, the melting point was 79 °C.

Molecule `CCCCCCCCCCCc1ccc(-c2ccc(OCC(C)CC)nn2)cc1` (configuration not stated) yielded a melting point of 78 °C.

Take `COC(=O)c1ccnc(N2CCN(Cc3ccncc3)C2=O)c1`: the melting point is 111 to 113 °C.

For `COc1ccc2cc3c(c(-c4ccc5c(c4)OCO5)c2c1)CNC3=O`, the melting point was 259 to 262 °C.

Molecule `C[C@H](NC(=O)COCCNC(=O)C12CC3CC(CC(C3)C1)C2)C(=O)N[C@H](CCC(=O)OCc1ccccc1)C(N)=O` had a melting point of 57 to 64 °C.

`CC1CCC(NC(=O)NS(=O)(=O)c2ccc(CCNC(=O)N3C(=O)c4ccccc4C3C)cc2)CC1` (configuration not stated): the melting point is 212 to 214 °C.

Regarding `C=CCn1cc(F)cnc1=O`, the melting point lay in the range of 88 to 90 °C.

`CCCCCc1ncc(C(=O)O)s1` yielded a melting point of 90 °C.

`CCNC(=O)c1c(Cl)ccc(Br)c1[Si](C)(C)C` yielded a melting point of 155 to 157 °C.

`CNC(=O)CC1CSc2c(C(=O)OC(C)C)ccn21` (configuration not stated) had a melting point of 117 to 119 °C.

For the molecule `CCOC(=O)/C=C/c1cnn(C)c1-c1ccoc1`, the melting point is 82 to 83 °C.

In turn, `N#Cc1ccc2c(c1)ncn2-c1cccc(Br)c1` had a melting point of 168 to 174 °C.

As to `O=C(O)CCc1oc(-n2cncn2)nc1-c1ccc(Cl)cc1`, the melting point lay in the range of 168 to 169 °C.

The molecule `O=C(O)/C=C/n1cnc2ccc(O)cc2c1=O` gave a melting point of 294 to 296 °C.

In the case of `COC(=O)c1cc2ccccc2nc1C(=O)OC`, the melting point was 105 to 106 °C.

For `Cc1ccc2cccc(OCc3c(Cl)ccc(N(C)C(=O)CNC(=O)CN4CCN(c5ccc([N+](=O)[O-])cc5)CC4)c3Cl)c2n1`, the melting point lay within 178 to 181 °C.

`CNC(C)=CC(=O)CS(=O)(=O)NC(C)C` displayed a melting point of 83 to 85 °C.

In turn, `O=C(CSCc1ccc(Cl)c(Cl)c1)NO` yielded a melting point of 75 to 76 °C.

In turn, `CC1(C)OC[C@H](Cn2cc3nccc(I)c3n2)O1` registered a melting point of 85 to 87 °C.

As a reminder, the melting point is the temperature, or range, at which the solid turns liquid.
